The inhibition is the change of the read-out against control, counted positive when it falls. Usually IC50 stands for the concentration that gives 50% inhibition.

The results in this text go back to ChEMBL document CHEMBL3045329, “Synthesis, biological evaluation, and pharmacokinetic profiling of benzophenone derivatives as tumor necrosis factor-alpha and interleukin-6 inhibitors” (Med Chem Res, 2012).

Series [1] relates to THP-1. Description: Anti-inflammatory activity in Homo sapiens (human) PMA-stimulated THP1 cells assessed as inhibition of LPS-induced TNFalpha production at 1 uM incubated for 30 min prior to LPS-challenge measured after 24 hr by ELISA. It counts as functional.
Series [2] has as its system THP-1. Description: Anti-inflammatory activity in Homo sapiens (human) PMA-stimulated THP1 cells assessed as inhibition of LPS-induced IL6 production at 1 uM incubated for 30 min prior to LPS-challenge measured after 24 hr by ELISA. The series is classed as functional. For orientation: In an ELISA, binding on a coated surface is turned into a signal by an enzyme label.

Series [3] is described as follows: Cytotoxicity against Homo sapiens (human) […] cells at 1 uM after 24 hr. The series is classed as cell-based.
Series [4] concerns THP-1. Description: Anti-inflammatory activity in Homo sapiens (human) PMA-stimulated THP1 cells assessed as inhibition of LPS-induced TNFalpha production at 10 uM incubated for 30 min prior to LPS-challenge measured after 24 hr by ELISA. It counts as functional. To be noted: values are per cent of control.
Series [5] relates to THP-1. Description: Anti-inflammatory activity in Homo sapiens (human) PMA-stimulated THP1 cells assessed as inhibition of LPS-induced IL6 production at 10 uM incubated for 30 min prior to LPS-challenge measured after 24 hr by ELISA. The series is classed as functional.
A short description of series [6]: Cytotoxicity against Homo sapiens (human) […] at 10 uM after 24 hr. It counts as cell-based. To be noted: cck8, 24 h.
The test system of series [7] is THP-1. Description: Anti-inflammatory activity in Homo sapiens (human) PMA-stimulated THP1 cells assessed as inhibition of LPS-induced IL6 production incubated for 30 min prior to LPS-challenge measured after 24 hr by ELISA. The series is classed as functional, cell-based.

Regarding `C[C@@H]1C[C@H]2[C@@H]3CCC4=CC(=O)C=C[C@]4(C)[C@@]3(F)[C@@H](O)C[C@]2(C)[C@@]1(O)C(=O)CO` [DEXAMETHASONE], the inhibition at 1 µM in series [1] amounted to 72%; in series [2], 94%. The compound also gave an Activity in series [3] of 0%.
Regarding `COc1cc(OC)c(C(=O)c2cccc(Cl)c2)c(O)c1Br`, the response, % of control at 10 µM in series [4] turned out to be 10%. In addition, the inhibition at 10 µM in series [5] was found to be 78%. The compound also registered an Activity in series [6] of 33%.
Consider `COc1cc(OC)c(C(=O)c2ccc(F)cc2)c(O)c1Br`, for which the response, % of control at 10 µM in series [4] amounted to 0%. In series [5], the inhibition at 10 µM is 63%. The half-inhibitory concentration (IC50) in series [7] worked out at 190 nM. In addition, in series [6], the Activity is 19%.
In the case of `COc1cc(OC)c(C(=O)c2ccccc2C)c(O)c1Br`, the response, % of control at 10 µM in series [4] is 0%. In series [5], the inhibition at 10 µM came out at 70%. Further, in series [6], the Activity came out at 40%.
Regarding `COc1ccc(C(=O)c2c(OC)cc(OC)c(Br)c2O)cc1`, the response, % of control at 10 µM in series [4] is 6%. Further, the inhibition at 10 µM in series [5] amounted to 82%. Also, the Activity in series [6] came out at 34%.
The matching figures for `COc1cc(OC)c(C(=O)c2ccccc2)c(O)c1Br`: 19%, 80% and 38%.
As for `COc1cc(OC)c(C(=O)c2ccccc2F)c(O)c1Br`, the response, % of control at 10 µM in series [4] was 0%. Besides, the inhibition at 10 µM in series [5] amounted to 76%. In addition, the Activity in series [6] is on record as 46%.
Take `COc1cc(OC)c(C(=O)c2cccc(C)c2)c(O)c1Br`: the response, % of control at 10 µM in series [4] worked out at 4%. For the same compound, the inhibition at 10 µM in series [5] came out at 76%. In series [6], this compound registered an Activity of 32%.
